# From US6747052B2, “Substituted indole-2-carboxylic acid benzylidene-hydrazides and analogs as activators of caspases and inducers of apoptosis and the use thereof” (Cytovia, Inc., priority 2000, dated 2004)
# “Also recorded” adds a separate entry of the source. Read-outs that look alike come from different tables or passages of the source.
# How the values were obtained:
# T-47D [1] = test: Caspase cascade activation (N-(Ac-DEVD)-N'-ethoxycarbonyl-R110 fluorogenic substrate) in T-47D cells; format: cell-based, Human; conditions: 24 h incubation with compound; for Caspase activity Ratio (net RFU of test compound to control): 3 h substrate reading; for EC50: Homo sapiens, T47D
# Procedure: (§1) Human breast cancer cell lines T-47D and ZR-75-1 were grown according to media component mixtures designated by American Type Culture Collection +10% FCS (Invitrogen Corporation, Life Technologies division), in a 5% CO2-95% humidity incubator at 37° C. T-47D and ZR-75-1 cells were maintained at a cell density between 30 and 80% confluency at a cell density of 0.1 to 0.6×10^6 cells/ml. Cells were harvested at 600×g and resuspended at 0.65×10^6 cells/ml into appropriate media +10% FCS. An aliquot of 45 μl of cells was added to a well of a 96-well microtiter plate containing 5 μl of a 10% DMSO in RPMI-1640 media solution containing 0.16 to 100 μM of 5-chloro-3-methyl-indole-2-carboxylic acid (4-nitrobenzylidene)-hydrazide (Compound A) or other test compound (0.016 to 10 μM final). An aliquot of 45 μl of cells was added to a well of a 96-well microtiter plate containing 5 μl of a 10% DMSO in RPMI-1640 media solution without test compound as the control sample. The samples were mixed by agitation and then incubated at 37° C. for 24 h in a 5% CO2-95% humidity incubator. After incubation, the samples were removed from the incubator and 50 μl of a solution containing 20 μM of N-(Ac-DEVD)-N′-ethoxycarbonyl-R110 fluorogenic substrate (Cytovia, Inc.; WO99/18856), 20% sucrose (Sigma), 20 mM DTT (Sigma), 200 mM NaCl (Sigma), 40 mM Na PIPES buffer pH 7.2 (Sigma), and 500 μg/ml lysolecithin (Calbiochem) was added. The samples were mixed by agitation and incubated at room temperature. Using a fluorescent plate reader (Model 1420 Wallac Instruments), an initial reading (T=0) was made approximately 1-2 min after addition of the substrate solution, employing excitation at 485 nm and emission at 530 nm, to determine the background fluorescence of the control sample. After the 3 h incubation, the samples were read for fluorescence as above (T=3 h).
# (§2) The Relative Fluorescence Unit values (RFU) were used to calculate the sample readings as follows: RFU(T=3h)−Control RFU(T=0)=Net RFU(T=3h)
# (§3) The activity of caspase cascade activation was determined by the ratio of the net RFU value for 5-chloro-3-methyl-indole-2-carboxylic acid (4-nitrobenzylidene)-hydrazide (Compound A) or other test compound to that of control samples. The EC50 (nM) was determined by a sigmoidal dose-response calculation (Prism 2.0, GraphPad Software Inc.).
# ZR-75-1 [2] = test: Caspase cascade activation (N-(Ac-DEVD)-N'-ethoxycarbonyl-R110 fluorogenic substrate) in ZR-75-1 cells; format: cell-based, Human; conditions: ZR-75-1, 24 h incubation with compound; for EC50: Homo sapiens; for Caspase activity Ratio (net RFU of test compound to control): 3 h substrate reading
# Procedure: as §1, §2, §3
# T-47D [3] = test: Inhibition of cell proliferation (GI50, CellTiter 96 AQueous One) in T-47D cells; format: cell-based; conditions: Homo sapiens, T47D, 48 h, read-out: GI50 (dose for 50% inhibition of cell proliferation)
# Procedure: (§4) T-47D and ZR-75-1 cells were grown and harvested as in Example 1. An aliquot of 90 μl of cells (2.2×10^4 cells/ml) was added to a well of a 96-well microtiter plate containing 10 μl of a 10% DMSO in RPMI-1640 media solution containing 1 nM to 100 μM of 5-chloro-3-methyl-indole-2-carboxylic acid (4-nitrobenzylidene)-hydrazide (Compound A) or 5-chloro-3-phenyl-indole-2-carboxylic acid (4-nitrobenzylidene)-hydrazide (Compound B) (0.1 nM to 10 μM final). An aliquot of 90 μl of cells was added to a well of a 96-well microtiter plate containing 10 μl of a 10% DMSO in RPMI-1640 media solution without compound as the control sample for maximal cell proliferation (AMax). The samples were mixed by agitation and then incubated at 37° C. for 48 h in a 5% CO2-95% humidity incubator. […] Using an absorbance plate reader (Model 1420 Wallac Instruments), an initial reading (T=0) was made approximately 1-2 min after addition of the solution, employing absorbance at 490 nm. This determines the possible background absorbance of the test compounds. No absorbance for 5-chloro-3-methyl-indole-2-carboxylic acid (4-nitrobenzylidene)-hydrazide or 5-chloro-3-phenyl-indole-2-carboxylic acid (4-nitrobenzylidene)-hydrazide was found at 490 nm. After the 2-4 h incubation, the samples were read for absorbance as above (ATest). […]
# ZR-75-1 [4] = test: Inhibition of cell proliferation (GI50, CellTiter 96 AQueous One) in ZR-75-1 cells; format: cell-based; conditions: Homo sapiens, ZR-75-1, 48 h; read-out: GI50 (dose for 50% inhibition of cell proliferation)
# Procedure: as §4
# Jurkat cells [5] = test: Nuclear fragmentation in Jurkat cells (Syto16 staining); format: cell-based; conditions: 5 μM, 24 h
# Procedure: The ability of 5-chloro-3-methyl-indole-2-carboxylic acid (4-nitrobenzylidene)-hydrazide to induce nuclear fragmentation, an indicator of apoptosis, was tested by treatment of Jurkat cells with the test compound followed by staining of the nucleus with Syto16, a fluorescent DNA dye (Molecular Probes, Eugene, Oreg.). The nuclei of Jurkat cells treated with vehicle control (DMSO) are seen to be round with dispersed chromatin that is moderately stained with Syto16 (FIG. 1A).
# Jurkat cells [6] = test: Mitotic arrest in Jurkat cells (mitotic figures, Syto 16); format: cell-based; conditions: Homo sapiens, 6 h
# Procedure: Jurkat cells were incubated with a range of concentrations of 5-chloro-3-methyl-indole-2-carboxylic acid (4-nitrobenzylidene)-hydrazide (0.02 μM to 5 μM) for 6 h under normal growth conditions; control cultures were treated with DMSO vehicle. The cells were then treated for 20 min. with 800 nM Syto 16 (Molecular Probes, Eugene, Oreg.). Cytospin preparations were then prepared and the samples were viewed by fluorescent microscopy using a fluorescein filter set. For each concentration of test compound, the number of mitotic figures were counted and expressed as a percentage of the total number of cells. Three fields from each condition were evaluated and the mean and SEM were calculated and plotted as a function of drug concentration (FIG. 2).
# T47D cells = test: Cell cycle arrest and apoptosis in T47D cells (propidium iodide flow cytometry); format: cell-based, Human; conditions: 10 μM, 48 h
# Procedure: T47D, a breast cancer cell line, was maintained and harvested as described in Example 1. 1×10^6 Cells were treated with 10 μM of 5-chloro-3-methyl-indole-2-carboxylic acid (4-nitrobenzylidene)-hydrazide for 48 h at 37° C. As a control, cells were also incubated with equivalent amount of solvent (DMSO). Cells were harvested at 1,200 rpm and washed twice with 5 mM EDTA/PBS. Cells were then resuspended in 300 μl EDTA/PBS and 700 μl of 100% ethanol, vortexed and incubated at room temperature for 1 h. Samples were spun down at 1,200 rpm for 5 min and the supernatant was removed. A solution containing 100 μg/ml of propidium iodide and 1 mg/ml of RNAse A (fresh) was added to the samples and incubated for 1 h at room temperature. Samples were then transferred to 12×75 mm polystyrene tubes and analyzed on a flow cytometer. All flow cytometry analyses were performed on FACScalibur (Becton Dickinson) using Cell Quest analysis software. The x-axis plotted the amount of fluorescence and the y-axis is plotted the number of cells with the indicated fluorescence. […] An increase in the sub-diploid DNA content of cells (marker M1 region, FIG. 3) is also seen to increase from 2% to 25% with compound treatment. The sub-diploid amount of DNA (M1) is indicative of apoptotic cells which have undergone DNA degradation or fragmentation.
# HeLa cells = test: Clonogenic survival of HeLa cells; format: cell-based; conditions: for IC50: Homo sapiens
# Procedure: HeLa cells were grown according to media component mixtures designated by American Type Culture Collection +10% FCS (Invitrogen Corporation, Life Technologies division), in a 5% CO2-95% humidity incubator at 37° C. In a well of a 96 well plate, 30,000 cells were seeded and treated with testing compound at the indicated concentrations for 48 hr in a 5% CO2-95% humidity incubator at 37° C. Control wells were treated with the same amount of solvent (DMSO) as the compound samples. After the indicated treatment time, the supernatant was removed to a sterile culture tube and the wells washed with phosphate buffered saline, and the adherent cells trypsinized for 5 min. The trypsinzed cells were added to the culture supernatant, cells were collected (1,200 rpm, 10 min), washed with phosphate buffered saline, and resupended in fresh media. The cells were counted for trypan blue negative cells, and the cells diluted with fresh media to 1,000 cells/ml. To a well of a 24-well plate, 0.1 ml of the cell suspension was added along with 1 ml of fresh media (cell suspensions were passed through a 22G needle several times just before plating to form single cell suspensions). Plates are incubated in a 5% CO2-95% humidity incubator at 37° C. for 5-7 days. Colonies are counted when the sizes reached greater than 50 cells per colony. Cells are washed with phosphate buffered saline, fixed with 100% methanol for 15 min, and then stained with 0.5% gentian violet for 15 min. Colonies are rinsed with water and the colonies counted and the fraction surviving expressed as the percentage of the number of control colonies.
# [7] = 48 hr treatment, read-out: IC50 of colony forming ability
# [8] = 48 h treatment, FIG. 4 legend, read-out: IC50 of colony formation
EC50 (T-47D [1]),EC50 (ZR-75-1 [2]),GI50 (T-47D [3]),EC50 (Jurkat cells [6]),Compound,Caspase activity Ratio (net RFU of test compound to control) (T-47D [1]),Caspase activity Ratio (net RFU of test compound to control) (ZR-75-1 [2]),GI50 (ZR-75-1 [4]),Nuclear morphology (nuclear fragmentation) (Jurkat cells [5]),G2/M DNA content (M4) of cells (T47D cells),Sub-diploid DNA content of cells (M1) (T47D cells; control 2%),IC50 (HeLa cells; [7]),IC50 (HeLa cells; [8]),Increase in potency in clonogenic survival assay versus Compound A (HeLa cells; 48 hr treatment)
253 nM,187 nM,,,"Cc1ccc(C=NNC(=O)c2[nH]c3ccc(Cl)cc3c2C)cc1 [Example 1, 5-Chloro-3-methyl-indole-2-carboxylic Acid (4-Methylbenzylidene)-hydrazide]",3.7,2.6,,,,,,,
4280 nM,1490 nM,,,"Cc1c(C(=O)NN=Cc2ccccc2)[nH]c2ccc(Cl)cc12 [Example 2, 5-Chloro-3-methyl-indole-2-carboxylic Acid (Benzylidene)-hydrazide]",5.1,4.1,,,,,,,
300 nM,100 nM,,,"Cc1ccc(C=NNC(=O)c2[nH]c3ccc(C)cc3c2-c2ccccc2)cc1 [Example 13, 5-Methyl-3-phenyl-indole-2-carboxylic Acid (4-Methylbenzylidene)-hydrazide]",3.1,7.6,,,,,,,
3650 nM,2770 nM,,,"Cc1c(C(=O)NN=Cc2ccc(Cl)cc2)[nH]c2ccc(Cl)cc12 [Example 21, 5-Chloro-3-methyl-indole-2-carboxylic Acid (4-Chlorobenzylidene)-hydrazide]",4.2,3.5,,,,,,,

# Further lines, the compound ahead of its results:
Compound,EC50 (T-47D [1]),EC50 (ZR-75-1 [2]),GI50 (T-47D [3]),EC50 (Jurkat cells [6]),Caspase activity Ratio (net RFU of test compound to control) (T-47D [1]),Caspase activity Ratio (net RFU of test compound to control) (ZR-75-1 [2]),GI50 (ZR-75-1 [4]),Nuclear morphology (nuclear fragmentation) (Jurkat cells [5]),G2/M DNA content (M4) of cells (T47D cells),Sub-diploid DNA content of cells (M1) (T47D cells; control 2%),IC50 (HeLa cells; [7]),IC50 (HeLa cells; [8]),Increase in potency in clonogenic survival assay versus Compound A (HeLa cells; 48 hr treatment)
"Cc1c(C(=O)NN=Cc2ccc([N+](=O)[O-])cc2)[nH]c2ccc(Cl)cc12 [Compound A, 5-chloro-3-methyl-indole-2-carboxylic acid (4-nitrobenzylidene)-hydrazide]",2000 nM,532 nM,2000 nM,~800 nM,6.9,7.0,12000 nM,shrunken and fragmented nuclei,increase in G2/M DNA content; also recorded: an increase in the G2/M (M4),25%,~3000 nM,~3000 nM,
"O=C(NN=Cc1ccc([N+](=O)[O-])cc1)c1[nH]c2ccc(Cl)cc2c1-c1ccccc1 [Compound B, 5-chloro-3-phenyl-indole-2-carboxylic acid (4-nitrobenzylidene)-hydrazide]",501 nM,276 nM,100 nM,,3,2.9,,,,,~300 nM,~300 nM,10 fold
"Cc1c(C(=O)NN=Cc2ccc(N(C)C)cc2)[nH]c2ccc(Cl)cc12 [Example 3, 5-Chloro-3-methyl-indole-2-carboxylic Acid (4-Dimethylaminobenzylidene)-hydrazide]",939 nM,449 nM,,,6.0,7.2,,,,,,,
"Cc1ccc2[nH]c(C(=O)NN=Cc3ccc(N(C)C)cc3)c(-c3ccccc3)c2c1 [Example 14, 5-Methyl-3-phenyl-indole-2-carboxylic Acid (4-Dimethylaminobenzylidene)-hydrazide]",2400 nM,830 nM,,,3.5,4.1,,,,,,,
